Measurements taken from patent US11427869B2, “T cell balance gene expression, compositions of matters and methods of use thereof” (THE BROAD INSTITUTE, INC., priority 2015, dated 2022).

Tested on: CD5L−/− Th17 cells
Assay: Nanostring nCounter Th17 codeset (312 genes), PUFA- or control-treated CD5L−/− Th17 cells
Format: cell-based, mouse
Description: Applicants studied the contribution of lipid saturation to Th17 cell pathogenicity. […] Applicants analyzed the expression of a 312 gene signature of Th17 cell differentiation and function (Yosef et al., 2013) in SFA- or control-treated WT Th17 cells and in PUFA- or control-treated CD5L−/− Th17 cells differentiated with TGF-81+IL-6.
T cell differentiation culture. Naïve CD4+CD44−CD62L+CD25− T cells or Effector memory CD4+CD44+CD62L− were sorted using BD FACSAria sorter and activated with plate-bound anti-CD3 and anti-CD28 antibodies (both at 2 μg/ml) in the presence of cytokines at a concentration of 2.5×10^5 cells/ml. For Th17 differentiation: 2 ng/ml of rhTGFβ1, 2 ng/ml of rhTGFβ3, 25 ng/ml rmIL-6, 20 ng/ml rmIL-18 (all from Miltenyi Biotec) and 20 ng/ml rmIL-23 (R & D systems) were used at various combinations as specified in figures. For Th1 differentiation, 20 ng/ml rmIL-12 (R & D systems); for Th2 differentiation 20 ng/ml rmIL-4 (Miltenyi Biotec); for iTreg differentiation, 2.5 ng/ml of rhTGFβ1 were used (Miltenyi Biotec). For differentiation experiments, cells were harvested at 48 hours. For restimulation experiments, cells were differentiated for 48 hours and resuspended in fresh media with no additional cytokines for 48-72 hours. Cells were re-stimulated with PMA/ionomycin for four hours before analysis for cytokines by intracellular cytokine staining. For experiments with exogenous fatty acid, fatty acids were purchased and resuspended first with serum-free media containing BSA prior being added to culture.
Nanostring nCounter. Nanostring nCounter platform (NanoString Technologies) is used to measure the number of RNA transcripts in RNA samples (FIG. 16I, FIG. 18D). A codeset containing 312 signature genes of Th17 cell differentiation and function as well as 4 additional house-keeping genes were custom-made (Yosef et al., 2013) and used in these experiments. Experimental procedures as detailed by the manufacturer is strictly followed.

## CCCCC/C=C\C/C=C\C/C=C\C/C=C\CCCC(=O)O [PUFA, arachidonic acid]
CD5LKO Th17 cells + PUFA
  Irf4 expression (Nanostring), normalized to WT: 0.65
  Irf7 expression (Nanostring), normalized to WT: 1.17
  Irf8 expression (Nanostring), normalized to WT: 1.29
  Itga3 expression (Nanostring), normalized to WT: 0.76
  Jak3 expression (Nanostring), normalized to WT: 1.27
  Jun expression (Nanostring), normalized to WT: 0.64
  Kat2b expression (Nanostring), normalized to WT: 1.22
  Klf9 expression (Nanostring), normalized to WT: 0.75
  Klf10 expression (Nanostring), normalized to WT: 1.30
  Klrd1 expression (Nanostring), normalized to WT: 0.63
  Lad1 expression (Nanostring), normalized to WT: 1.18
  Lgals3bp expression (Nanostring), normalized to WT: 1.34
  Litaf expression (Nanostring), normalized to WT: 0.61
  Lpxn expression (Nanostring), normalized to WT: 1.39
  Maf expression (Nanostring), normalized to WT: 0.84
  Maff expression (Nanostring), normalized to WT: 0.77
  Map3k5 expression (Nanostring), normalized to WT: 1.49
  Mbnl3 expression (Nanostring), normalized to WT: 1.30
  Mina expression (Nanostring), normalized to WT: 1.08
  Mt1 expression (Nanostring), normalized to WT: 0.79
  Mt2 expression (Nanostring), normalized to WT: 0.84
  Nfkbie expression (Nanostring), normalized to WT: 1.52
  Nkg7 expression (Nanostring), normalized to WT: 1.40
  Notch2 expression (Nanostring), normalized to WT: 1.20
  Oas2 expression (Nanostring), normalized to WT: 0.82
  Peli2 expression (Nanostring), normalized to WT: 0.83
  Plac8 expression (Nanostring), normalized to WT: 0.85
  Plagl1 expression (Nanostring), normalized to WT: 1.07
  Pmepa1 expression (Nanostring), normalized to WT: 1.19
  Pou2af1 expression (Nanostring), normalized to WT: 0.86
  Prkd3 expression (Nanostring), normalized to WT: 1.51
  Pstpip1 expression (Nanostring), normalized to WT: 1.24
  Rab33a expression (Nanostring), normalized to WT: 1.50
  Rasgrp1 expression (Nanostring), normalized to WT: 1.21
  Rel expression (Nanostring), normalized to WT: 0.73
  Rela expression (Nanostring), normalized to WT: 0.96
  Rfk expression (Nanostring), normalized to WT: 1.07
  Rorc expression (Nanostring), normalized to WT: 1.52
  Sap30 expression (Nanostring), normalized to WT: 0.81
  Sema7a expression (Nanostring), normalized to WT: 1.04
  Serpinb1a expression (Nanostring), normalized to WT: 0.77
  Ski expression (Nanostring), normalized to WT: 0.86
  Slc6a6 expression (Nanostring), normalized to WT: 1.03
  Smad3 expression (Nanostring), normalized to WT: 1.03
  Socs3 expression (Nanostring), normalized to WT: 1.38
  Spp1 expression (Nanostring), normalized to WT: 0.66
  Spry1 expression (Nanostring), normalized to WT: 1.02
  Stat4 expression (Nanostring), normalized to WT: 1.21
  Stat5b expression (Nanostring), normalized to WT: 1.19
  Stat6 expression (Nanostring), normalized to WT: 1.13
  Sult2b1 expression (Nanostring), normalized to WT: 0.61
  Tal2 expression (Nanostring), normalized to WT: 1.52
  Tcf4 expression (Nanostring), normalized to WT: 1.29
  Tgfb1 expression (Nanostring), normalized to WT: 0.68
  Tgfb3 expression (Nanostring), normalized to WT: 1.67
  Tgfbr3 expression (Nanostring), normalized to WT: 0.94
  Tgm2 expression (Nanostring), normalized to WT: 1.51
  Tmem229b expression (Nanostring), normalized to WT: 1.52
  Tnfrsf4 expression (Nanostring), normalized to WT: 1.05
  Tnip2 expression (Nanostring), normalized to WT: 0.78
  Trat1 expression (Nanostring), normalized to WT: 0.85
  Trim25 expression (Nanostring), normalized to WT: 1.17
  Trps1 expression (Nanostring), normalized to WT: 1.44
  Tsc22d3 expression (Nanostring), normalized to WT: 0.66
  Ubiad1 expression (Nanostring), normalized to WT: 1.16
  Vav3 expression (Nanostring), normalized to WT: 1.20
  Xrcc5 expression (Nanostring), normalized to WT: 1.27
  nrp1 expression (Nanostring), normalized to WT: 0.90
  pou2f1 expression (Nanostring), normalized to WT: 0.66
PUFA-treated CD5L−/− Th17 cells, TGF-β1+IL-6
  transcriptional signature (312 gene Th17 codeset, genes >1.5 fold): resemble WT non-pathogenic Th17 cells
